Experimental data published in PMC5341858, “Molecular regulation of apoptotic machinery and lipid metabolism by mTORC1/mTORC2 dual inhibitors in preclinical models of HER2+/PIK3CAmut breast cancer” (Oncotarget, 2016).

Tests used:
[1] = target: T1, ABL1-phosphorylated (Homo sapiens, UniProt P00519); test: KINOMEscan binding assay; conditions: 1000 nM, percent control relative to vehicle
T1 construct: purchased DiscoveRx KINOMEscan
Excerpt: (§1) IC50 values were generated using Graphpad PRISM 5 software.

[2] = target: T2, AKT2 (Homo sapiens, UniProt P31751); test: KINOMEscan binding assay; conditions: 1000 nM, percent control relative to vehicle
T2 construct: purchased DiscoveRx KINOMEscan
Excerpt: as §1

[3] = target: T3, ALK (Homo sapiens, UniProt Q9UM73); test: KINOMEscan binding assay; conditions: 1000 nM, percent control relative to vehicle
T3 construct: purchased DiscoveRx KINOMEscan
Excerpt: as §1

[4] = target: T4, AURKA (Homo sapiens, UniProt O14965); test: KINOMEscan binding assay; conditions: 1000 nM, percent control relative to vehicle
T4 construct: purchased DiscoveRx KINOMEscan
Excerpt: as §1

[5] = target: T5, AXL (Homo sapiens, UniProt P30530); test: KINOMEscan binding assay; conditions: 1000 nM, percent control relative to vehicle
T5 construct: purchased DiscoveRx KINOMEscan
Excerpt: as §1

[6] = target: T6, BMPR2 (Homo sapiens, UniProt Q13873); test: KINOMEscan binding assay; conditions: 1000 nM, percent control relative to vehicle
T6 construct: purchased DiscoveRx KINOMEscan
T6 sequence (Q13873 27-1038): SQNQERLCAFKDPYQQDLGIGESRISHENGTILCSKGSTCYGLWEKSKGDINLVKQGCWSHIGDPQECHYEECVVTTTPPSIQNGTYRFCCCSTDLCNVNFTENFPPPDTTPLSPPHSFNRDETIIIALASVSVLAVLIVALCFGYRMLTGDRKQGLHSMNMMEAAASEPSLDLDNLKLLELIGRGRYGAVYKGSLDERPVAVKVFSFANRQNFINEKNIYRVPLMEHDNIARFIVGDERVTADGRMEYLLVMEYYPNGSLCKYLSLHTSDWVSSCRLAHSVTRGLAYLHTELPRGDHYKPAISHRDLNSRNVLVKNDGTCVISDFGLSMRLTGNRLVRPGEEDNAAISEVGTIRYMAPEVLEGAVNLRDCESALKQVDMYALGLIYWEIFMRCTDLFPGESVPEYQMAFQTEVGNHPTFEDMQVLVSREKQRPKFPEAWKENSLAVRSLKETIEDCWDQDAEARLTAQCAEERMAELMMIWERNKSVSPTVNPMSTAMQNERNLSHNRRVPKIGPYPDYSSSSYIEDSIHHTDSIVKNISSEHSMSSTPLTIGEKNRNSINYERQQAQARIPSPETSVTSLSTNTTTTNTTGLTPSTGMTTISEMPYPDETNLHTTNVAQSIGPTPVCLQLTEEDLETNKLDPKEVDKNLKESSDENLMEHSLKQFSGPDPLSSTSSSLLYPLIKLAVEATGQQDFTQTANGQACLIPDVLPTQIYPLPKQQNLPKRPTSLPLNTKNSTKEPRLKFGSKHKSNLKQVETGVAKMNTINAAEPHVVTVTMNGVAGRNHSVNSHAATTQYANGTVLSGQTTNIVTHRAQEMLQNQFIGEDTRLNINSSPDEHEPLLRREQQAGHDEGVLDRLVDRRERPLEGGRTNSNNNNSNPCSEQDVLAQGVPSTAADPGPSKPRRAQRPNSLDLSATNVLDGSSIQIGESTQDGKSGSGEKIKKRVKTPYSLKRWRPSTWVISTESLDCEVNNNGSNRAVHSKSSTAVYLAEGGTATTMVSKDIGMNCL
Excerpt: as §1

[7] = target: T7, CDK2 (Homo sapiens, UniProt P24941); test: KINOMEscan binding assay; conditions: 1000 nM, percent control relative to vehicle
T7 construct: purchased DiscoveRx KINOMEscan
Excerpt: as §1

[8] = target: T8, CSNK1G2 (Homo sapiens, UniProt P78368); test: KINOMEscan binding assay; conditions: 1000 nM, percent control relative to vehicle
T8 construct: purchased DiscoveRx KINOMEscan
Excerpt: as §1

[9] = target: T9, ERK1 (Homo sapiens, UniProt P27361); test: KINOMEscan binding assay; conditions: 1000 nM, percent control relative to vehicle
T9 construct: purchased DiscoveRx KINOMEscan
Excerpt: as §1

[10] = target: T10, FGFR2 (Homo sapiens, UniProt P21802); test: KINOMEscan binding assay; conditions: 1000 nM, percent control relative to vehicle
T10 construct: purchased DiscoveRx KINOMEscan
Excerpt: as §1

[11] = target: T11, FGFR3 (Homo sapiens, UniProt P22607); test: KINOMEscan binding assay; conditions: 1000 nM, percent control relative to vehicle
T11 construct: purchased DiscoveRx KINOMEscan
Excerpt: as §1

[12] = target: T12, IGF1R (Homo sapiens, UniProt P08069); test: KINOMEscan binding assay; conditions: 1000 nM, percent control relative to vehicle
T12 construct: purchased DiscoveRx KINOMEscan
Excerpt: as §1

[13] = target: T13, JAK2 (JH1domain-catalytic) (Homo sapiens, UniProt O60674); test: KINOMEscan binding assay; conditions: 1000 nM, percent control relative to vehicle
T13 construct: JAK2 (JH1domain-catalytic); purchased DiscoveRx KINOMEscan
Excerpt: as §1

[14] = target: T14, KIT (Homo sapiens, UniProt P10721); test: KINOMEscan binding assay; conditions: 1000 nM, percent control relative to vehicle
T14 construct: purchased DiscoveRx KINOMEscan
Excerpt: as §1

[15] = target: T15, KIT (V559D, T670I) (Homo sapiens, UniProt P10721, T670I/V559D); test: KINOMEscan binding assay; conditions: 1000 nM, percent control relative to vehicle
T15 construct: purchased DiscoveRx KINOMEscan
Excerpt: as §1

[16] = target: T16, LKB1 (Homo sapiens, UniProt Q15831); test: KINOMEscan binding assay; conditions: 1000 nM, percent control relative to vehicle
T16 construct: purchased DiscoveRx KINOMEscan
Excerpt: as §1

[17] = target: T17, MAP3K4 (Homo sapiens, UniProt Q9Y6R4); test: KINOMEscan binding assay; conditions: 1000 nM, percent control relative to vehicle
T17 construct: purchased DiscoveRx KINOMEscan
Excerpt: as §1

[18] = target: T18, MAPKAPK2 (Homo sapiens, UniProt P49137); test: KINOMEscan binding assay; conditions: 1000 nM, percent control relative to vehicle
T18 construct: purchased DiscoveRx KINOMEscan
Excerpt: as §1

[19] = target: T19, MKNK2 (Homo sapiens, UniProt Q9HBH9); test: KINOMEscan binding assay; conditions: 1000 nM, percent control relative to vehicle
T19 construct: purchased DiscoveRx KINOMEscan
Excerpt: as §1

[20] = target: T20, PAK2 (Homo sapiens, UniProt Q13177); test: KINOMEscan binding assay; conditions: 1000 nM, percent control relative to vehicle
T20 construct: purchased DiscoveRx KINOMEscan
Excerpt: as §1

[21] = target: T21, PDGFRB (Homo sapiens, UniProt P09619); test: KINOMEscan binding assay; conditions: 1000 nM, percent control relative to vehicle
T21 construct: purchased DiscoveRx KINOMEscan
Excerpt: as §1

[22] = target: T22, PIK3C2B (Homo sapiens, UniProt O00750); test: KINOMEscan binding assay; conditions: 1000 nM, percent control relative to vehicle
T22 construct: purchased DiscoveRx KINOMEscan
T22 sequence (O00750 whole entry): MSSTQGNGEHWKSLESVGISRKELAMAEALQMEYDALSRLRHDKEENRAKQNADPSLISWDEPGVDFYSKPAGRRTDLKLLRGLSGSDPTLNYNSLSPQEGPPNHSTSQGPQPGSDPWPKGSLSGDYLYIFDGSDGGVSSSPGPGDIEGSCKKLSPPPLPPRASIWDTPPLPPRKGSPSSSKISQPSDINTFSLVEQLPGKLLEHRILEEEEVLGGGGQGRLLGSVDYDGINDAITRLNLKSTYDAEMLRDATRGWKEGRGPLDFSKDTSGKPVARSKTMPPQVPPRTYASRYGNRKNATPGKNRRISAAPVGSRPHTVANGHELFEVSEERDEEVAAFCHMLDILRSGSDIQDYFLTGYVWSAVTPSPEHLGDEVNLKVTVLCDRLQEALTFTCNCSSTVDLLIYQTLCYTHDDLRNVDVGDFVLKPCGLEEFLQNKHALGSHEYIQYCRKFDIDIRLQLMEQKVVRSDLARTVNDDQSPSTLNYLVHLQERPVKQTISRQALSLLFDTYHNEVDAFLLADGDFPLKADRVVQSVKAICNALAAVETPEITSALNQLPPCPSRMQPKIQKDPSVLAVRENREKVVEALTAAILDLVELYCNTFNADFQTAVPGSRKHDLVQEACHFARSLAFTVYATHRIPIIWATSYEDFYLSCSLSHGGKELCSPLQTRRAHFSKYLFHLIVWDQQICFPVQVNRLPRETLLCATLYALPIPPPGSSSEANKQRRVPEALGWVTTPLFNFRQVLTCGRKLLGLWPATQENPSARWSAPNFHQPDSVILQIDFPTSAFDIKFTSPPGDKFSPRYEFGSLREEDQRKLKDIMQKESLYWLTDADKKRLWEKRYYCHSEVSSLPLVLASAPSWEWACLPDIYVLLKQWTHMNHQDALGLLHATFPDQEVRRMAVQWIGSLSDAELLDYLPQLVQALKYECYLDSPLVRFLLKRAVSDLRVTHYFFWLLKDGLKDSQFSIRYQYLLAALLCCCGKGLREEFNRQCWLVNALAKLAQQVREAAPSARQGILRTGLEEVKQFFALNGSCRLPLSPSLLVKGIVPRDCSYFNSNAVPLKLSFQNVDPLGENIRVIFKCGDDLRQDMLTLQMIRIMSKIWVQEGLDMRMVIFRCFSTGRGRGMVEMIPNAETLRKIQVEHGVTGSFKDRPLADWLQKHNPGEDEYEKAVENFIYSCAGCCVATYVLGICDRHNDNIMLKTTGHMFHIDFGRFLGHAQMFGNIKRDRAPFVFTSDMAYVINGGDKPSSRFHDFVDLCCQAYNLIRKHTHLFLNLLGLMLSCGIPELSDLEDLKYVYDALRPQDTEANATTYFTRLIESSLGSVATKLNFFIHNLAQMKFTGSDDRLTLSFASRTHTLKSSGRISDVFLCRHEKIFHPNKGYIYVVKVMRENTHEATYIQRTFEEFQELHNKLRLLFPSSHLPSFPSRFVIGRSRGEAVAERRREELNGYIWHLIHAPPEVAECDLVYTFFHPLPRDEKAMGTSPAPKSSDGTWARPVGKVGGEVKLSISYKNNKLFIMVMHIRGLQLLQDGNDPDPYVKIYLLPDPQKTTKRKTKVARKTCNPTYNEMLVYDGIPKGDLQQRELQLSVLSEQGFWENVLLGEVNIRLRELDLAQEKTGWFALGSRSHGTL
Excerpt: as §1

[23] = target: T23, PIM1 (Homo sapiens, UniProt P11309); test: KINOMEscan binding assay; conditions: 1000 nM, percent control relative to vehicle
T23 construct: purchased DiscoveRx KINOMEscan
Excerpt: as §1

[24] = target: T24, PIM3 (Homo sapiens, UniProt Q86V86); test: KINOMEscan binding assay; conditions: 1000 nM, percent control relative to vehicle
T24 construct: purchased DiscoveRx KINOMEscan
Excerpt: as §1

[25] = target: T25, PLK3 (Homo sapiens, UniProt Q9H4B4); test: KINOMEscan binding assay; conditions: 1000 nM, percent control relative to vehicle
T25 construct: purchased DiscoveRx KINOMEscan
Excerpt: as §1

[26] = target: T26, PLK4 (Homo sapiens, UniProt O00444); test: KINOMEscan binding assay; conditions: 1000 nM, percent control relative to vehicle
T26 construct: purchased DiscoveRx KINOMEscan
T26 sequence (O00444 whole entry): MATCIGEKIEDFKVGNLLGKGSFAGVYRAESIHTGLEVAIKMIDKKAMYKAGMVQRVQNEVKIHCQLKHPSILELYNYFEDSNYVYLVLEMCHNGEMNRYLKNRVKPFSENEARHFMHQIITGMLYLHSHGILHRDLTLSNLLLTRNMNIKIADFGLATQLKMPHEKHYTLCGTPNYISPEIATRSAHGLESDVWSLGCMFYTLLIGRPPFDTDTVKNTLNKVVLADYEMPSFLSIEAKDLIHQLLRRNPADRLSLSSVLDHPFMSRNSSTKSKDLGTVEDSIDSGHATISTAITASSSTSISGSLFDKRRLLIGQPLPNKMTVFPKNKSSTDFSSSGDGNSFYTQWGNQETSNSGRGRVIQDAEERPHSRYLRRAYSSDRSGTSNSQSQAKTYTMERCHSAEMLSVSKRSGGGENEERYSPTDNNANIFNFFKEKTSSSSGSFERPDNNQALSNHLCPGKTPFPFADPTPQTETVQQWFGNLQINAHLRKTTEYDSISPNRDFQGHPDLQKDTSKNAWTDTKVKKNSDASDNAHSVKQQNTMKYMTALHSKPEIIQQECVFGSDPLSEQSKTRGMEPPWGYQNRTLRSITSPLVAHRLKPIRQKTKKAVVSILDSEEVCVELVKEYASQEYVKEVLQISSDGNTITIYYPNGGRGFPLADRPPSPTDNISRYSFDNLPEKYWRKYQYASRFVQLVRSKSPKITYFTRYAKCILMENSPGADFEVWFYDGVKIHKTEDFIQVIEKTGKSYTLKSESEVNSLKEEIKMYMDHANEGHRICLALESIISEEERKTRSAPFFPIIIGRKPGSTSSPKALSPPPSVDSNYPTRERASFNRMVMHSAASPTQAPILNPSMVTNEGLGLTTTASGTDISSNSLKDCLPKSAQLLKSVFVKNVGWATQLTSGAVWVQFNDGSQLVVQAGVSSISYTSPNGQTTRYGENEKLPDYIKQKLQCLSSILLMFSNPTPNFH
Excerpt: as §1

[27] = target: T27, RAF1 (Homo sapiens, UniProt P04049); test: KINOMEscan binding assay; conditions: 1000 nM, percent control relative to vehicle
T27 construct: purchased DiscoveRx KINOMEscan
T27 sequence (P04049 whole entry): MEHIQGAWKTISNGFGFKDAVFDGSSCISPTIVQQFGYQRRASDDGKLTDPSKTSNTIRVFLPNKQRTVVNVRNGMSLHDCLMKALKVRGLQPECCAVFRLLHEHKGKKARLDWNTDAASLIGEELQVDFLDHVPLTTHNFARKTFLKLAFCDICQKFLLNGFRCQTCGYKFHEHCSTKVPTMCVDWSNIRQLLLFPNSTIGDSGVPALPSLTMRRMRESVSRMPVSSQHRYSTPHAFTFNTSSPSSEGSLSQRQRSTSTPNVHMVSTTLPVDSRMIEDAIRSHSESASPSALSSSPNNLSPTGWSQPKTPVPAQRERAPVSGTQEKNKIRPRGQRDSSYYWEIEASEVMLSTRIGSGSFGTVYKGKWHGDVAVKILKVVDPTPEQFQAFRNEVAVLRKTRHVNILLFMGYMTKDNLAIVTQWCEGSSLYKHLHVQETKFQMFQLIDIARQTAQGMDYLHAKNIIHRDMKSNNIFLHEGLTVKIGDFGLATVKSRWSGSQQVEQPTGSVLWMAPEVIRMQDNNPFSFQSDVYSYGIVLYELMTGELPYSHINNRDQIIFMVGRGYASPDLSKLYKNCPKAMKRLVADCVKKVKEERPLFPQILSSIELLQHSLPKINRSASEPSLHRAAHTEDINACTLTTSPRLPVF
Excerpt: as §1

[28] = target: T28, RSK2 (Kin.Dom.1-N- terminal) (Homo sapiens, UniProt P51812); test: KINOMEscan binding assay; conditions: 1000 nM, percent control relative to vehicle
T28 construct: RSK2 (Kin.Dom.1-N- terminal); purchased DiscoveRx KINOMEscan
T28 sequence (P51812 1-397 limits assumed): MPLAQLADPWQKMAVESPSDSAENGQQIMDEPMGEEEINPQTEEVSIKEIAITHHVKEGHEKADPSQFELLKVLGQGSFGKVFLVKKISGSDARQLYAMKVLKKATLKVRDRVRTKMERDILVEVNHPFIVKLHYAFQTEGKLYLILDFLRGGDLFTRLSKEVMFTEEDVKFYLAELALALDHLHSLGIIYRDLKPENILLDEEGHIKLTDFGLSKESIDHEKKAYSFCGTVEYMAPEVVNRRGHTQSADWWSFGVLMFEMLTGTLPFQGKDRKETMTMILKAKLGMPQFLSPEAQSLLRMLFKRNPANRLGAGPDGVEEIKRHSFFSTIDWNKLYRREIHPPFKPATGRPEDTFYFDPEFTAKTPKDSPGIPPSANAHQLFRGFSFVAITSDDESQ
Excerpt: as §1

[29] = target: T29, SNARK (Homo sapiens, UniProt Q9H093); test: KINOMEscan binding assay; conditions: 1000 nM, percent control relative to vehicle
T29 construct: purchased DiscoveRx KINOMEscan
Excerpt: as §1

[30] = target: T30, SRPK3 (Homo sapiens, UniProt Q9UPE1); test: KINOMEscan binding assay; conditions: 1000 nM, percent control relative to vehicle
T30 construct: purchased DiscoveRx KINOMEscan
Excerpt: as §1

[31] = target: T31, ZAP70 (Homo sapiens, UniProt P43403); test: KINOMEscan binding assay; conditions: 1000 nM, percent control relative to vehicle
T31 construct: purchased DiscoveRx KINOMEscan
Excerpt: as §1

[32] = target: T32, p38-alpha (Homo sapiens, UniProt Q16539); test: KINOMEscan binding assay; conditions: 1000 nM, percent control relative to vehicle
T32 construct: purchased DiscoveRx KINOMEscan
Excerpt: as §1

[33] = test system: MDA-MB-453 and 786-O tumors; test: In vivo antitumor efficacy, oral once daily
Method: Animal studies were performed under protocols approved by Institutional Animal Care and Use Committee (IACUC) of Fudan University. Balbc female nude mice bearing MDA-MB-453, HCC1806 or 786-O tumors were staged at initial tumor volume of 150-200 mm^3 and randomized into treatment groups (n=/>8). […] Lapatinib and Sunitinib were formulated in 0.5% hydroxypropyl methyl cellulose (HPMC)-0.2% tween-80 as homogeneous suspension. All test agents were prepared twice weekly. Mice were dosed orally once daily (qd). Tumor growth inhibition rate (TGI) was calculated: TGI=[1-(Vt-Vi)/(Vc-Vi)]×100, where Vt: tumor volume of drug treated group, Vc: tumor volume of vehicle control group, Vi: initial tumor volume at staging. For biomarker studies, frozen tumors were made lysates and immunoblotted as previously described. For detecting apoptosis, tumors were excised, fixed in 4% formalin for 24 h and embedded in paraffin. Slides were processed for terminal deoxynuleotidyl transferase dUTP nick end labeling (TUNEL) using an assay kit (KeyGen Biotech, KGA7061) following vendor's instruction manual. For IHC staining, tumor slides described above were deparaffinized, rehydrated and permeablized with 1% Triton X-100. Antigens were retrieved with Tris/EDTA (pH 9.0) under microwave heating for 20 min. The slides were blocked in Tris buffered saline with 5% BSA-0.3 M glycine and reacted with anti-CPT1A (Proteintech #15184-1-AP) or anti-P-ACL S455 (Abcam #59297) and detected with peroxidase-conjugated secondary antibody (Jackson # 111-035-003). Images were acquired using Leica microscope (model DMI4000D). Staining levels were analyzed on the basis of mean optical density quantified by software image pro plus 6.0.

## CNC(=O)c1cccc(-c2ccc3c(N4C5CCC4COC5)nc(N4CCOC[C@@H]4C)nc3n2)c1 [MTI-31]
[1]
  % Control: 70%
[2]
  % Control: 94%
[3]
  % Control: 78%
[4]
  % Control: 97%
[5]
  % Control: 97%
[6]
  % Control: 88%
[7]
  % Control: 84%
[8]
  % Control: 100%
[9]
  % Control: 100%
[10]
  % Control: 100%
[11]
  % Control: 92%
[12]
  % Control: 100%
[13]
  % Control: 88%
[14]
  % Control: 100%
[15]
  % Control: 100%
[16]
  % Control: 100%
[17]
  % Control: 100%
[18]
  % Control: 87%
[19]
  % Control: 100%
[20]
  % Control: 94%
[21]
  % Control: 100%
[22]
  % Control: 100%
[23]
  % Control: 100%
[24]
  % Control: 100%
[25]
  % Control: 92%
[26]
  % Control: 87%
[27]
  % Control: 82%
[28]
  % Control: 78%
[29]
  % Control: 89%
[30]
  % Control: 90%
[31]
  % Control: 72%
[32]
  % Control: 100%
[33]; 5 mg/kg oral qd, p<0.01
  tumor growth inhibition (TGI) at MED: > 50%
[33]; 40 mg/kg oral qd, without mortality
  body weight loss at MTD: 7-15%
[33]; nude mice bearing large size MDA-MB-453 tumors, 40 mg/kg qd
  tumor response, large size tumors: rapid and dramatic tumor regression
[33]; oral, qd, nude mice, MDA-MB-453 and 786-O models
  minimum efficacious dose (MED): 5 mg/kg
[33]; oral, qd, nude mice, without mortality
  maximum tolerated dose (MTD): 40 mg/kg
